Assay [1] deals with T1, McinOBP4-Wt (Macrocentrus cingulum, UniProt A0A1S6PU99). The experiment in a line: Competitive binding assay with 1-NPN as fluorescent reporter, McinOBP4-Wt. The procedure:
(§1) One cm light path fluorimeter quartz cuvette was used on a FluoroMax-4 (Horiba Scientific, USA) spectrophotometer at room temperature for fluorescence spectra recording and excitation wavelength of 337 nm was chosen and 300–500 nm for the emission with a 5 nm slit width. Spectra were recorded with 2 μM McinOBP4 in 50 mM Tris-HCl of different pH value, while ligands were added as 1 mM methanol solutions.
The probe was excited at 337 nm and emission spectra were recorded between 300 and 500 nm.
(§2) It was assumed that McinOBP4 was 100% active and the protein-ligand binding was 1:1 ratio at saturation. The obtained data were processed with Graphpad Prism software (Graphpad Software, Inc.) and using a software package SPSS Version 16 (http://www.spss.com). The maximum intensity values of emission were plotted against the 1-NPN concentration for the KD determination, and the values of intensity were used for the evaluation the bound ligands. The curve was linearized using Scatchard Plots to verify the confidence of KD.

Assay [2] deals with T2, McinOBP4-M2 (Macrocentrus cingulum, UniProt A0A1S6PU99, M141L).
T2 sequence (A0A1S6PU99 23-142 M141L): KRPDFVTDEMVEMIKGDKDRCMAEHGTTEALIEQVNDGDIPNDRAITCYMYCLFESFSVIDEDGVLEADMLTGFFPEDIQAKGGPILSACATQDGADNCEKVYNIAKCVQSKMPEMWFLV
The experiment in a line: Competitive binding assay with 1-NPN as fluorescent reporter, McinOBP4-M2. To be noted: compared to wild type and M1.

The target in assay [3] is T1, McinOBP4-Wt. The experiment in a line: Fluorescence binding of 1-NPN to McinOBP4-Wt. As for the experimental part: as §1
To measure the affinity of the fluorescence ligand N-phenyl-1-naphthylamine (1-NPN) to McinOBP4-wt and mutants, a 2 μM solution of the protein in 50 mM Tris-HCl, pH 7.4, was titrated with aliquots of 1 mM ligand in high-performance liquid chromatography (HPLC) purity grade methanol to final concentrations of 2–20 μM. The probe was excited at 337 nm and emission spectra were recorded between 300 and 500 nm. While the other competitor were measured in competitive binding assays, where 1-NPN using as the fluorescent reporter at 2 μM concentration and each competitor (odorants) over concentration ranges 2–14 μM, depending on the different odorants.
as §2, with “KD. IC50 for other corn odorants were calculated using with Microsoft excel 2010, and the equation, KD = [IC50]/[1+(1–NPN)/K1−NPN] was used for the KD values calculation. In this equation [IC50] stands for the ligand concentration where the ligand quenching the fluorescence intensity of 1-NPN to 50%, [1-NPN] and K1−NPN mean free 1-NPN concentration and McinOBP4/1-NPN complex KD values, respectively (Campanacci et al., [2001]; Ban et al., [2002]).” for “KD.”

For a further assay, the target named is T3, McinOBP4-M1 (Macrocentrus cingulum, UniProt A0A1S6PU99).
T3 sequence (A0A1S6PU99 23-134): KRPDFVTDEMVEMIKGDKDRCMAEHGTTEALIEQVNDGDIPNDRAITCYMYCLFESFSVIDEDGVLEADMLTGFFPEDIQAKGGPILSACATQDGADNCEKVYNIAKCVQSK
Put plainly: Fluorescence binding of 1-NPN to C-terminal truncated mutant McinOBP4-M1. As for the experimental part: (§3) The C-terminal tail truncated form of the McinOBP4 was obtained by removing the last 8 amino acids and inserting a stop codon after Leu112. The McinOBP4-Wt/pGEM-T Easy construct was used as a template. A pair of primer was designed manually and as listed sense primer 5′- […] -3′ (underlined with BamHI) and antisense primer, 5′- […] -3′ (underlined with HindIII) where 113th position residues used as a stop codon. The mutant M2 (Met119) was prepared along with the pair of primer as sense primer 5′- […] -3′ (under lined with BamHI), and antisense primere 5′- […] -3′ (under lined with HindIII). […]
(§4) One cm light path fluorimeter quartz cuvette was used on a FluoroMax-4 (Horiba Scientific, USA) spectrophotometer at room temperature for fluorescence spectra recording and excitation wavelength of 337 nm was chosen and 300–500 nm for the emission with a 5 nm slit width. Spectra were recorded with 2 μM McinOBP4 in 50 mM Tris-HCl of different pH value, while ligands were added as 1 mM methanol solutions. […]
(§5) It was assumed that McinOBP4 was 100% active and the protein-ligand binding was 1:1 ratio at saturation. […] IC50 for other corn odorants were calculated using with Microsoft excel 2010, and the equation, KD = [IC50]/[1+(1–NPN)/K1−NPN] was used for the KD values calculation. […]

The target of assay [4] is T2, McinOBP4-M2. Put plainly: Fluorescence binding of 1-NPN to mutant McinOBP4-M2 (Met119 replaced by Leu). The note with it: McinOBP4-M2, pH 7.4; read-out: Dissociation constant (KD) of 1-NPN. As for the experimental part: as §3, §4, §5
Setting [5] is: recombinant McinOBP4-Wt, pH = 7.4, calculated from IC50, read-out: KD.
The mark [6] stands for this setting: recombinant McinOBP4-Wt, pH = 7.4, displacement of 1-NPN, read-out: IC50.
The mark [7] stands for this setting: McinOBP4-Wt, pH 7.4, read-out: KD.

“Also recorded” adds a separate entry of the source. Read-outs that look alike come from different tables or passages of the source.

T1 sequence (A0A1S6PU99 entry or part of it): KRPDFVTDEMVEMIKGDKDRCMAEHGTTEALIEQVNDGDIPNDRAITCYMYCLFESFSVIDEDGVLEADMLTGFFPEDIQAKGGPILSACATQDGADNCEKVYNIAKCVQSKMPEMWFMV

As a reminder, the IC50 is the concentration that inhibits the measured activity by half. Usually Kd stands for the equilibrium constant for the complex coming apart. In the case of `CCC/C=C/C=O` [Trans-2-Hexen-1-al], at McinOBP4-Wt [1], the IC50 was 16.4 µM and the Kd is 12.8 µM.

Take `CCCCCc1ccco1` [2-Pentylfuran]: at McinOBP4-Wt [1] (setting [5]), the dissociation constant Kd was 15.7 µM. For the same molecule, the half-maximal inhibitory concentration (IC50) on McinOBP4-Wt [1] (setting [6]) worked out at 20.1 µM.

Regarding `CCCCC(C)CC(C)C` (centres unmarked) [2,4 Dimethyl Octane], the Kd at McinOBP4-Wt [1] (setting [5]) is 36.6 µM. Moreover, on McinOBP4-Wt [1] (setting [6]), the 50% inhibitory concentration (IC50) turned out to be 47 µM.

As for `C=CC(C)(O)CCC=C(C)C` (centres unmarked) [Linalool], at McinOBP4-Wt [1], the IC50 worked out at 12.3 µM and the equilibrium dissociation constant (Kd) stood at 9.61 ± 0.23 µM. Further, the “Binding affinity to McinOBP4-M2 compared to wild type and first mutant” value on McinOBP4-M2 [2] was “lower binding affinities; also recorded: much weaker”.

As for `CC1=CCC2CC1C2(C)C` (stereo not drawn) [α-Pinene], at McinOBP4-Wt [1], the half-maximal inhibitory concentration (IC50) is 34.2 µM and the Kd is 26.6 µM.

Turning to `C=CC(O)CC` (centres unmarked) [1-Penten-3-ol], the dissociation constant (Kd) on McinOBP4-Wt [1] (setting [5]) is 19.8 µM. Moreover, on McinOBP4-Wt [1] (setting [6]), the concentration for half-maximal inhibition (IC50) came out at 25.4 µM.

`CCCCCC/C=C/C=O` [Trans-2-Nonenal]: the dissociation constant Kd at McinOBP4-Wt [1] (setting [5]) was 12.8 µM. On McinOBP4-Wt [1] (setting [6]), the 50% inhibitory concentration (IC50) was 16.5 µM.

On McinOBP4-Wt [1], `CC(=O)/C=C/C1C(C)=CCCC1(C)C` (stereo not drawn) [α-Ionone] displayed an IC50 of 24.1 µM and a Kd of 18.7 µM.

In the case of `c1ccc(Nc2cccc3ccccc23)cc1` [1-NPN, N-phenyl-1-naphthylamine], at McinOBP4-Wt [3] (acidic condition (pH 4.4)), the “Affinity of 1-NPN in acidic condition” value is listed as “did not observe significant loss of binding activity”. In addition, the “Affinity of 1-NPN in basic condition” value at McinOBP4-Wt [3] (basic condition) is recorded as “increase in basic condition; also recorded: increase in affinity”; at McinOBP4-M1 (McinOBP4-M1, basic condition), “increase in basic condition; also recorded: increase in affinity”. Moreover, the dissociation constant (Kd) at McinOBP4-Wt [3] (pH 7.4, read-out: Dissociation constant (KD) of 1-NPN) stood at 5.69 ± 0.83 µM; at McinOBP4-M1 (McinOBP4-M1, pH 7.4, read-out: Dissociation constant (KD) of 1-NPN), 6.99 ± 0.59 µM; on McinOBP4-M2 [4] it was 8.85 ± 0.63 µM.

Turning to `C=C1CC/C=C(\C)CC[C@@H]2[C@@H]1CC2(C)C` (relative stereo) [Trans Caryophelle], the dissociation constant Kd at McinOBP4-Wt [1] (setting [5]) was 19.1 µM. Further, the IC50 at McinOBP4-Wt [1] (setting [6]) worked out at 24.5 µM.

For the molecule `CCC/C=C/CO` [Trans-2-Hexen-1-ol], at McinOBP4-Wt [1], the IC50 came out at 19.8 µM and the Kd amounted to 15.4 µM.

In the case of `C=CC(=C)CCC=C(C)C` [Myrcene], at McinOBP4-Wt [1] (setting [5]), the dissociation constant Kd is 17.9 µM. Also, at McinOBP4-Wt [1] (setting [6]), the IC50 came out at 23 µM.

With `CCCCCCC=O` [Heptanal], at McinOBP4-Wt [1] (setting [5]), the dissociation constant Kd was 13 µM. Besides, the IC50 on McinOBP4-Wt [1] (setting [6]) turned out to be 16.8 µM.

As for `CCCCC/C=C/C=O` [Trans-2-Octenal], the dissociation constant Kd at McinOBP4-Wt [1] (setting [7]) is 11.8 ± 0.57 µM; at McinOBP4-Wt [1] (setting [5]) it was 11.9 µM. The half-inhibitory concentration (IC50) at McinOBP4-Wt [1] (setting [6]) came to 15.3 µM. Moreover, the “Binding affinity to McinOBP4-M2 compared to wild type and first mutant” value at McinOBP4-M2 [2] (listed as trans-2-octanal) was “lower binding affinities; also recorded: much weaker”.

At McinOBP4-Wt [1], `C=C1CCC2CC1C2(C)C` (stereo not drawn) [β-Pinene] registered a half-inhibitory concentration (IC50) of 18.8 µM and a Kd of 14.7 µM.

For `CCCCCCCCC=O` [Nonanal], the Kd on McinOBP4-Wt [1] (setting [5]) is 12.5 µM. The concentration for half-maximal inhibition (IC50) at McinOBP4-Wt [1] (setting [6]) was 16.1 µM.

`C=C/C(C)=C/C/C=C(\C)CCC=C(C)C` [Farnsene]: the dissociation constant (Kd) on McinOBP4-Wt [1] (setting [5]) is 21.3 µM. Further, the IC50 at McinOBP4-Wt [1] (setting [6]) amounted to 27.4 µM.

Regarding `C=C(C)[C@H]1CC=C(C)CC1` [Limonene], the dissociation constant (Kd) at McinOBP4-Wt [1] (setting [7]) is 4.12 ± 0.7 µM; on McinOBP4-Wt [1] (setting [5]) it was 4.12 µM. For the same molecule, the 50% inhibitory concentration (IC50) at McinOBP4-Wt [1] (setting [6]) came to 5.29 µM. Further, the “Binding affinity to McinOBP4-M2 compared to wild type and first mutant” value at McinOBP4-M2 [2] is on record as “lower binding affinities; also recorded: much weaker”.

With `CC(=O)/C=C/C1=C(C)CCCC1(C)C` [β-Ionone], at McinOBP4-Wt [1], the concentration for half-maximal inhibition (IC50) worked out at 15.1 µM and the affinity, expressed as Kd, was 11.8 µM. Moreover, the “Binding affinity to McinOBP4-M2 compared to wild type and first mutant” value at McinOBP4-M2 [2] is given as “lower binding affinities; also recorded: much weaker”.

For the molecule `CC/C=C\CCO` [Cis-3-Hexen-1-ol], at McinOBP4-Wt [1], the IC50 was 19.9 µM and the affinity, expressed as Kd, was 15.5 µM.

As for `CC/C=C/CCOC(C)=O` [Trans-3-Hexen-1-ol-Acetate], the values for the Kd at McinOBP4-Wt [1] (setting [7]) and at McinOBP4-Wt [1] (setting [5]) were 6.99 ± 1.23 µM and 6.99 µM, respectively. The IC50 on McinOBP4-Wt [1] (setting [6]) amounted to 8.98 µM. Further, at McinOBP4-M2 [2], the “Binding affinity to McinOBP4-M2 compared to wild type and first mutant” value is on record as “lower binding affinities; also recorded: much weaker”.

As for Hexenal, the Kd on McinOBP4-Wt [1] (setting [5]) was 26.9 µM. Further, the concentration for half-maximal inhibition (IC50) on McinOBP4-Wt [1] (setting [6]) stood at 34.6 µM.

These data come from paper PMC5297413, “C-terminus Methionene Specifically Involved in Binding Corn Odorants to Odorant Binding Protein4 in Macrocentrus cingulum” (Frontiers in Physiology, 2017).
